Experimental findings from patent US8716293B2, “Macrocyclic integrase inhibitors” (Janssen R&D Ireland, priority 2010, dated 2014) are described below.

A short description of data set [1]: pharmacokinetic evaluation in the rat. Type of data set: in vivo, male Sprague-Dawley rats. Conditions: intravenous bolus 2 mg/kg; for CLp: plasma clearance; for Vss: volume of distribution at steady-state; for t1/2: terminal phase elimination half-life. On the procedure: For determining the pharmacokinetic properties in rat, each HIV integrase inhibitor was dissolved in PEG400/normal saline (70:30 (v/v)) at a nominal concentration of 1 mg/ml and administered (2 ml/kg) to male Sprague-Dawley rats (n=3 per test compound) as an intravenous bolus via a saphenous vein at a dose level of 2 mg/kg. […] Plasma was obtained by centrifugation and stored at −20° C. prior to analysis. Analysis was performed using liquid chromatography (LC) with tandem mass spectrometric detection (MS/MS) in positive ion mode. Each HIV integrase inhibitor was eluted from a reversed-phase column with a gradient of acetonitrile and water containing 0.1% (v/v) formic acid. At the time of analysis plasma samples (50 p. 1) were thawed and […] with 200 μl of acetonitrile containing 0.1% (v/v) formic acid and centrifuged. Aliquots of the supernatant (100 μl) were diluted with 200 μl of water containing 25% (v/v) methanol and 0.1% (v/v) formic acid and injected via an electrospray interface directly into the Mass Spectrometer. Calibration standards and quality controls were prepared in rat plasma at the same time as the samples and analyzed before and after the samples containing HIV integrase inhibitor. Non-compartmental pharmacokinetic analysis of the plasma concentration-time curves was performed using WinNonLin software to provide estimates of the plasma clearance (CLp), volume of distribution at steady-state (Vss) and terminal phase elimination half-life (t1/2).

The test system of another data set is HIV-1 LAI (IIIB). The data set is described as follows: antiviral assay in the presence of 50% human serum. Type of data set: cell-based. Conditions: MT-4-LTR-EGFP cells, 4 days, resazurin cell viability. On the procedure:
For the antiviral assay in the presence of 50% human serum, MT-4-LTR-EGFP cells were infected with HIV-1 LAI (IIIB) at a MOI of 0.001 to 0.01 CCID50/cell in RPMI1640 medium. Following 1 h of incubation, cells were washed and plated into a 96-well plate containing serial dilutions of test compound in the presence of 10% fetal calf serum or 50% human serum. After 4 days of incubation, the EC50 in the presence of 50% human serum (EC50/HS) was determined by a cell viability assay using resazurin (as described by Fields, R. D., and M. V. Lancaster (1993) Am. Biotechnol. Lab. 11:48-50).
A general note: The colour change of resazurin is a common sign of viable cells or microbes.

For data set [2], the system named is HIV-1 SDM strain G140S-Q148H. The data set is described as follows: cell-based HIV-1 replication assay in MT4-LTR-EGFP cells, G140S-Q148H mutant. Conditions: fold change in activity against G140S-Q148H mutant compared to wild type HIV. The text has this:
(§1) MT4-LTR-enhanced green fluorescent protein (EGFP) cells were obtained by transfecting MT4 cells with a selectable construct encompassing the coding sequences for the HIV LTR as a promoter for the expression of EGFP and subsequent selection of permanently transfected cells. MT4-cytomegalovirus (CMV)-EGFP cells were obtained by selection for permanently transformed MT4 cells with a CMV-EGFP reporter gene. Cell lines were maintained in RPMI 1640 medium supplemented with 10% heat-inactivated fetal calf serum, 2 mM L-glutamine, 0.1% NaHCO3, and antibiotics (0.02% gentamicin and 0.8% G418) and incubated in a humidified incubator with a 5% CO2 atmosphere at 37° C.
(§2) N155H and Q148R mutant Integrase coding sequences were constructed in the pUC19-5′HXB2D vector (XbaI-SalI fragment of pHXB2D), containing the HIV-1 clone HXB2D IN coding sequence, by using a QuikChange site-directed mutagenesis kit (Stratagene, La Jolla, Calif.) and HPLC-purified primers (Genset Oligos, La Jolla, Calif.). Altered plasmid sequences were confirmed by dideoxyribose sequencing. For generation of site-directed mutant (SDM) virus stocks, MT4 cells were subcultured at a density of 250,000 cells/ml on the day before transfection. Cells were pelleted and resuspended in phosphate-buffered saline at a concentration of 3.1×10^6 cells/ml. A 0.8-ml portion ([…]) was used for each transfection. Transfections were performed with a Bio-Rad Gene Pulser (Bio-Rad, Hercules, Calif.) with 0.4-cm electrode cuvettes (Bio-Rad). Cells were electroporated with 10 μg of SalI-linearized pUC19-3′HXB2D (SalI-XbaI fragment of pHXB2D) and 5 μg of SalI-digested SDM at 250 μF and 300 V, followed by a 30-min incubation at room temperature. Ten ml of fresh culture medium was then added to the suspension of transfected cells, and incubation was performed at 37° C. in a humidified atmosphere with 5% CO2. Cell cultures were monitored for the appearance of cytopathic effect (CPE).
(§3) The inhibitory antiviral activity of different compounds was determined in a cell-based HIV-1 replication assay. MT4-LTR-EGFP cells (150,000 cells/ml) were infected with HIV-1 (IIIB or SDM strains Q148R, N155H, or G140S-Q148H; multiplicity of infection [MOI] of 0.0025) in the presence or absence of inhibitor. After 3 days of incubation, the inhibition of HIV replication was quantified by measuring EGFP fluorescence, and expressed as the compound concentration required for 50% inhibition of HIV-1 replication in cell culture (EC50).

In a further data set the test system is HIV-1 SDM strain Q148R. The data set is described as follows: cell-based HIV-1 replication assay in MT4-LTR-EGFP cells, Q148R mutant. The settings on record: fold change in activity against Q148R mutant compared to wild type HIV.
Text: as §1, §2, §3

Another data set relates to HIV-1 SDM strain N155H. The data set is described as follows: cell-based HIV-1 replication assay in MT4-LTR-EGFP cells, N155H mutant. Conditions: fold change in activity against N155H mutant compared to wild type HIV.
Text: as §1, §2, §3

By Vss is commonly meant the apparent volume that relates the amount in the body to the concentration in plasma or blood. A higher Vss goes with extensive tissue distribution. One may read the EC50 as the concentration that produces a half-maximal response. On to `CCN1C[C@H](C)n2c(c(O)c3c(=O)n4nc(c32)N(C)S(=O)(=O)CCCCNC(=O)c2cc(F)ccc2C4)C1=O` [Compound 22], for which, in data set [1], the CLp is 12 mL/min/kg and the Vss came to 0.6 L/kg. For the same molecule, the half-maximal effective concentration (EC50) in the data set on HIV-1 LAI (IIIB) was found to be 14 nM. The same molecule displayed an FC-G140S-Q148H in data set [2] of 1.7. For the same molecule, in the data set on HIV-1 SDM strain Q148R, the FC-Q148R was determined as 0.5. The molecule further came in with an FC-N155H in the data set on HIV-1 SDM strain N155H of 6.0.
In data set [1], `CCN1C[C@H](C)n2c(c(O)c3c(=O)n4nc(c32)C(=O)N(C)CCCCCOc2cc(F)ccc2C4)C1=O` [Compound 31] returned a CLp of 13 mL/min/kg, a t1/2 of 8.1 h and a distribution volume (Vss) of 6 L/kg. Besides, the EC50 with HIV-1 LAI (IIIB) is 21 nM. In data set [2], this molecule had an FC-G140S-Q148H of 7.0. In the data set with HIV-1 SDM strain Q148R, the FC-Q148R was 0.6. The molecule also had an FC-N155H in the data set on HIV-1 SDM strain N155H of 4.6.
In data set [1], `CCN1CCCCCOc2cc(F)c(Cl)cc2Cn2nc(c3c(c(O)c4n3[C@@H](C)CN(CC)C4=O)c2=O)C1=O` [Compound 33] gave a CLp of 11 mL/min/kg, a t1/2 of 4.2 h and a distribution volume (Vss) of 1.3 L/kg. In addition, in the data set on HIV-1 LAI (IIIB), the EC50 was determined as 147 nM. For the same molecule, in data set [2], the FC-G140S-Q148H worked out at 2.5. This molecule also registered an FC-Q148R with HIV-1 SDM strain Q148R of 0.5. Moreover, the FC-N155H in the data set on HIV-1 SDM strain N155H is 5.1.
With `CCN1C[C@H](C)n2c(c(O)c3c(=O)n4nc(c32)C(=O)N(C)CCCCCOc2cc(F)c(F)cc2C4)C1=O` [Compound 34], the EC50 in the data set with HIV-1 LAI (IIIB) was 18 nM. Moreover, in data set [2], the FC-G140S-Q148H is given as 5.9. Moreover, the FC-Q148R with HIV-1 SDM strain Q148R amounted to 0.4. Besides, the FC-N155H in the data set on HIV-1 SDM strain N155H is 7.4.
In the case of `CC(C)N1C[C@H](C)n2c(c(O)c3c(=O)n4nc(c32)C(=O)N(C)CCCCCOc2cc(F)ccc2C4)C1=O` [Compound 35], the EC50 in the data set with HIV-1 LAI (IIIB) amounted to 30 nM. In data set [2], this molecule displayed an FC-G140S-Q148H of 2.7. Moreover, the FC-Q148R in the data set with HIV-1 SDM strain Q148R turned out to be 0.4. Besides, the FC-N155H in the data set with HIV-1 SDM strain N155H worked out at 4.8.
Taken in the same sequence, the figures for `C[C@H]1CN(C2CC2)C(=O)c2c(O)c3c(=O)n4nc(c3n21)C(=O)NCCCCCOc1cc(F)ccc1C4` [Compound 36] were 18 nM, 60.1, 2.4 and 5.8.
For `C[C@H]1CN(C2CC2)C(=O)c2c(O)c3c(=O)n4nc(c3n21)C(=O)N(C)CCCCCOc1cc(F)ccc1C4` [Compound 37] the same measures were 22 nM, 109.5, 0.8 and 8.8.
For `CCN1CCn2c(c(O)c3c(=O)n4nc(c32)C(=O)N(C)CCCCCOc2cc(F)ccc2C4)C1=O` [Compound 38] the same measures were 29 nM, 106.3, 1.2 and 6.8.
For the molecule `CCN1C[C@H](C)n2c(c(O)c3c(=O)n4nc(c32)NCCCNC(=O)c2cc(F)ccc2C4)C1=O` [Compound 39], the EC50 in the data set with HIV-1 LAI (IIIB) is 3370 nM. In data set [2], this molecule yielded an FC-G140S-Q148H of 2.8. The molecule further came in with an FC-Q148R in the data set with HIV-1 SDM strain Q148R of 1.1. Also, the FC-N155H with HIV-1 SDM strain N155H worked out at 4.6.
For `CCN1C[C@H](C)n2c(c(O)c3c(=O)n4nc(c32)NCCCCCNC(=O)c2cc(F)ccc2C4)C1=O` [Compound 40] the same measures were 1100 nM, 3.1, 0.4 and 6.2.
In data set [1], `CCN1C[C@H](C)n2c(c(O)c3c(=O)n4nc(c32)NCCCCCCNC(=O)c2cc(F)ccc2C4)C1=O` [Compound 41] returned a CLp of 7 mL/min/kg, a t1/2 of 5.4 h and a Vss of 0.7 L/kg. Besides, the EC50 in the data set with HIV-1 LAI (IIIB) is 1110 nM. In data set [2], this molecule registered an FC-G140S-Q148H of 2.8. This molecule returned an FC-Q148R in the data set on HIV-1 SDM strain Q148R of 0.4. This molecule also came in with an FC-N155H in the data set on HIV-1 SDM strain N155H of 6.0.
For `CCN1C[C@H](C)n2c(c(O)c3c(=O)n4nc(c32)NCCCCCCN(C)C(=O)c2cc(F)ccc2C4)C1=O` [Compound 42], in the data set with HIV-1 LAI (IIIB), the EC50 stood at 3170 nM. The molecule also displayed an FC-G140S-Q148H in data set [2] of 2.6. In the data set on HIV-1 SDM strain Q148R, this molecule returned an FC-Q148R of 0.5. The molecule also gave an FC-N155H in the data set with HIV-1 SDM strain N155H of 3.3.
Taken in the same sequence, the figures for `CCN1C[C@H](C)n2c(c(O)c3c(=O)n4nc(c32)N(C)CCCCCCNC(=O)c2cc(F)ccc2C4)C1=O` [Compound 43] were 101 nM, 0.8, 0.5 and 2.0.
In data set [1], `CCN1C[C@H](C)n2c(c(O)c3c(=O)n4nc(c32)N2CCN(CC2)C(=O)CCCCOc2cc(F)ccc2C4)C1=O` [Compound 45] came in with a CLp of 8 mL/min/kg, a t1/2 of 4.2 h and a volume of distribution (Vss) of 0.9 L/kg. Further, the EC50 in the data set on HIV-1 LAI (IIIB) was 6 nM. Besides, in data set [2], the FC-G140S-Q148H is listed as 1.6. In the data set on HIV-1 SDM strain Q148R, this molecule gave an FC-Q148R of 0.8. Besides, the FC-N155H with HIV-1 SDM strain N155H is 4.3.
Turning to `CCN1C[C@H](C)n2c(c(O)c3c(=O)n4nc(c32)N(C)CCCCCCOc2cc(F)ccc2C4)C1=O` [Compound 46], in the data set with HIV-1 LAI (IIIB), the EC50 worked out at 1490 nM. The same molecule yielded an FC-G140S-Q148H in data set [2] of 3.6. Also, the FC-Q148R with HIV-1 SDM strain Q148R was 0.3. In the data set on HIV-1 SDM strain N155H, this molecule showed an FC-N155H of 40.8.
For `CCN1C[C@H](C)n2c(c(O)c3c(=O)n4nc(c32)N2CCN(CCCCOc3cc(F)ccc3C4)S2(=O)=O)C1=O` [Compound 47] the same measures were 4 nM, 3.2, 0.7 and 4.4.
As for `CCN1C[C@H](C)n2c(c(O)c3c(=O)n4nc(c32)N(C)S(=O)(=O)CC/C=C\COc2cc(F)ccc2C4)C1=O` [Compound 49], the EC50 with HIV-1 LAI (IIIB) is 8 nM. The FC-G140S-Q148H in data set [2] was 1.6. This molecule registered an FC-Q148R with HIV-1 SDM strain Q148R of 0.5. Moreover, the FC-N155H with HIV-1 SDM strain N155H is listed as 5.3.
For `CCN1C[C@H](C)n2c(c(O)c3c(=O)n4nc(c32)N(C)S(=O)(=O)CCC/C=C\COc2cc(F)ccc2C4)C1=O` [Compound 50] the same measures were 11 nM, 1.2, 0.3 and 2.8.
For `CCN1C[C@H](C)n2c(c(O)c3c(=O)n4nc(c32)N(C)S(=O)(=O)CCC/C=C/COc2cc(F)ccc2C4)C1=O` [Compound 51] the same measures were 13 nM, 3.4, 0.4 and 9.6.
